Patent publication US8158362B2, “Methods of diagnosing susceptibility to myocardial infarction and screening for an LTA4H haplotype” (deCODE Genetics ehf., priority 2005, dated 2012)
“Also recorded” adds a separate entry of the source.

Experiments:
[1] = test system: C-reactive protein (CRP); assay: Serum CRP, DG-031 crossover clinical trial incl. carry-over test; type: in vivo, human
Procedure: (§1) In the short term study, changes in levels of biomarkers that are associated with risk of MI were scored as evidence of changes in the risk of MI.
(§2) Patients (191 subjects) who met the study eligebility criteria were enrolled and randomized into 3 different dose-level groups: (1) 64 patients on 250 mg/day therapy with DG-031 (250 mg q.d.), vs placebo; (2) 64 patients on 500 mg/day therapy with DG-031 (250 mg b.i.d.) vs placebo; and (3) 63 patients on 750 mg/day therapy with DG-031 (250 mg t.i.d.) vs placebo. […] All patients received 3 tablets per day. Treatment periods, 4 weeks in duration each, were separated by a 2-week washout period. The placebo tablets were identical in shape, color, form and taste to the active tablets except that they contained no active drug ingredients. Treatment with DG-031 or placebo was in addition to the subject's standard care, including all medications and treatment plan as prescribed by the subject's cardiologist prior to enrollment. Due to early termination of 19 subjects (primarily related to unavailability due to travel), 11 were replaced prior to enrollment closure. Thus, a total of 191 subjects were enrolled, with 172 completing all 8 visits or 8 patients (4.4%) short of target.
All data were analyzed according to a pre-established analysis plan and by intention-to-treat. Hypotheses were tested at a two-sided nominal significance level of 0.05. Each arm of the study, as well as pooled sets (combining dose levels), was considered for the primary analysis. Each such set is a standard AB/BA cross-over design and in the primary analysis of efficacy, the levels of biomarkers of MI risk at the end of the treatment periods (visits 4 and 7) were used as primary response variables. The difference between DG-031 and placebo treatment was the primary outcome, assessed separately for each of the biomarkers. Treatment effect was tested using a two-sample t-test on the period differences for suitably transformed response variables, under an assumption of normality of the transformed data. We report treatment effect as one half of the observed mean differences in the two-sample t-test, with a 95% CI. No pre-tests for carry-over effect were performed as a part of the primary analysis. Tests for carry-over were done and are reported separately from results of primary analysis. As was prespecified for the primary analysis, a simple Bonferroni-adjustment based on 10 biomarkers for the primary objective for the pooled set of the two highest doses, was used to report the outcome of the primary objective. All p-values reported are nominal.
To cancel out potential seasonal effects, carry-over effects were also studied with two-sample t-tests that compare measurements of the AB (drug/placebo) group with the measurements of the BA (placebo/drug) group. To estimate the effect of the drug at visit 3 for the AB group, (v3−v2), with v3 and v2 denoting, respectively, measurements at visit 3 and visit 2, was used. Similarly (v4−v2) and (v5−v2) were used to estimate effects at visits 4 and 5. For estimating the effect at visit 6, [(v6−v2)+(v3−v2)] was used. Note that v6 from the BA group includes the drug effect after two weeks which cancels the drug effect at visit 3 from the AB group. Similarly, [(v7−v2)+(v4−v2)] was used to estimate the effect at visit 7. […]
(§3) Apart from measurements in plasma, LTB4 and MPO were also measured in whole blood preparations ex vivo following ionomycin-activation of leukocytes, using ELISA and mass spectrometry. […]

[2] = 750 mg/day dose; healthy volunteers and patients with asthma (Dahlen et al., Hamilton et al.); cited from earlier work
[3] = test system: LTB4 produced by ionomycin-activated neutrophils; assay: LTB4 production in ionomycin-activated whole blood/neutrophils ex vivo, DG-031 placebo-controlled crossover clinical trial; set-up: species or system human
Procedure: as §1, §2
All data were analyzed according to a pre-established analysis plan and by intention-to-treat. Hypotheses were tested at a two-sided nominal significance level of 0.05. Each arm of the study, as well as pooled sets (combining dose levels), was considered for the primary analysis. Each such set is a standard AB/BA cross-over design and in the primary analysis of efficacy, the levels of biomarkers of MI risk at the end of the treatment periods (visits 4 and 7) were used as primary response variables. The difference between DG-031 and placebo treatment was the primary outcome, assessed separately for each of the biomarkers. […]
as §3

[4] = test system: myeloperoxidase (MPO) in whole blood; assay: MPO production in ionomycin-activated whole blood ex vivo, DG-031 crossover clinical trial; set-up: species or system human
Procedure: as §1
as §2, with “Due to early termination of 19 subjects (primarily related to unavailability due to travel), 11 were replaced prior to enrollment closure. Thus, a total of 191 subjects were enrolled, with 172 completing all 8 visits or 8 patients (4.4%) short of target.” left out
(§4) All data were analyzed according to a pre-established analysis plan and by intention-to-treat. […] The difference between DG-031 and placebo treatment was the primary outcome, assessed separately for each of the biomarkers. […]
as §3

[5] = test system: Lp-PLA2; assay: Lp-PLA2, DG-031 crossover clinical trial; type: in vivo, human
Procedure: as §1
(§5) Patients (191 subjects) who met the study eligebility criteria were enrolled and randomized into 3 different dose-level groups: (1) 64 patients on 250 mg/day therapy with DG-031 (250 mg q.d.), vs placebo; (2) 64 patients on 500 mg/day therapy with DG-031 (250 mg b.i.d.) vs placebo; and (3) 63 patients on 750 mg/day therapy with DG-031 (250 mg t.i.d.) vs placebo. […] All patients received 3 tablets per day. Treatment periods, 4 weeks in duration each, were separated by a 2-week washout period. […]
as §4
(§6) Apart from measurements in plasma, LTB4 and MPO were also measured in whole blood preparations ex vivo following ionomycin-activation of leukocytes, using ELISA and mass spectrometry. […] On the log scale the adjustment was based on a linear model, with coefficients determined empirically at time of blind review. Several tertiary markers were also measured including: IL-6, IL-12p40, TNFα, MMP-9, sICAM, sVCAM, P-selectin, E-selectin, MCP-1 and oxidised LDL.

[6] = test system: urinary leukotriene E4; assay: Urine LTE4, DG-031 crossover clinical trial; type: in vivo, human; settings: highest dosage of DG-031 (750 mg/day); nominal p=0.00002
Procedure: as §1, §5, §4, §6

[7] = test system: IL-6, IL-12p40, TNFα, MMP-9, sVCAM, P-selectin, E-selectin, MCP-1 and oxidised LDL; assay: Other tertiary markers (IL-6, IL-12p40, TNFα, MMP-9, sVCAM, P-selectin, E-selectin, MCP-1, oxidised LDL), DG-031 crossover clinical trial; type: in vivo, human; settings: DG-031 vs placebo
Procedure: as §1, §5, §4, §6

[8] = Safety and adverse events, DG-031 crossover clinical trial; type: in vivo, human
Text: All study participants lived in the Reykjavik metropolitan area or its neighboring townships. All study participants were followed by the designated cardiologists at the University Hospital of Iceland, at their outpatient or private clinics, and all subjects had participated in a study on the genetics of MI. After the subject had given informed consent, a medical and medication history was completed, including co-morbidities, concomitant medications and specific details about the subject's cardiovascular history, including current status. All study participants were fasting and had not taken their medications prior to the study visit. Cardiologists examined the patients at all 8 visits and completed the case report forms. All blood was collected and processed immediately after sampling. All blood specimens used for the biomarker studies were processed within 2 hours of blood sampling.
as §2

[9] = test system: serum amyloid A; assay: Serum amyloid A (SAA), DG-031 crossover clinical trial incl. carry-over test; type: in vivo, human
Procedure: as §1
as §2, with “Due to early termination of 19 subjects (primarily related to unavailability due to travel), 11 were replaced prior to enrollment closure. Thus, a total of 191 subjects were enrolled, with 172 completing all 8 visits or 8 patients (4.4%) short of target.” left out
as §4, §3

[10] = differences between visit 2 and 5, 500 and 750 mg/day vs placebo

## O=C(O)[C@@H](c1ccc(OCc2ccc3ccccc3n2)cc1)C1CCCC1 [DG-031, (R)-(+)-alpha-cyclopentyl-4-(2-quinolinylmethoxy)-Benzeneacetic acid]
[1]; differences between visit 2 and 5, 500 and 750 mg/day vs placebo, p=0.017
  carry-over / persistent effect after discontinuation, CRP: evidence of a persistent effect; also recorded: marked carry over effects were observed; also recorded: seems to persists until visit 7
[1]; short term study, LT inhibitor added to statin therapy
  further CRP reduction in subjects already on statin therapy: 20-30%
[1]; summary of the clinical trial
  reduction of serum levels of CRP: approximately 25%
[1]; visit 5 (after 2-week washout), two higher doses, p=0.017
  reduction of CRP: about 25%
[1]; visits 3 (2 weeks on therapy) and 4 (4 weeks on therapy), two higher doses
  level of CRP during treatment: dropped at visits 3 and 4, but not significantly
[2]
  tolerability in previous phase I-III human studies: well tolerated
[3]; 750 mg/day DG-031 vs placebo, 4-week treatment, MI patients carrying at-risk FLAP/LTA4 hydrolase haplotypes, nominal p=0.0026
  maximum reduction in LTB4 production by ionomycin-activated neutrophils ex vivo: 26%
[3]; [10]
  carry-over effect from treatment phase to placebo phase, LTB4: No carry over effects were observed
[3]; pooled set of 500 mg and 750 mg arms, nominal p=0.0042, significant after correction for multiple testing
  levels of LTB4 produced by ionomycin-activated neutrophils ex vivo (primary efficacy endpoint): reduces levels of LTB4
[4]; 750 mg/day DG-031 vs placebo, nominal p=0.023
  maximum reduction in MPO production (whole blood): 13%
[4]; [10]
  carry-over effect from treatment phase to placebo phase, MPO: No carry over effects were observed
[5]; 2 lower doses (250 mg/day and 500 mg/day)
  effect on Lp-PLA2: not significant
[5]; highest dose of DG-031 (750 mg/day), nominal p=0.0056
  increase in Lp-PLA2: 9%
[6]
  increase in urine levels of LTE4: 27%
[7]
  effect on other tertiary markers: no effects were observed
[8]; active drug (any dose) vs none on placebo, p=0.032
  dizziness, number of patients reporting: 6 patients
[8]; active drug vs placebo
  liver transaminases: no difference was detected
[8]; between treatment groups or dose arms
  serious adverse events: no difference in serious adverse events
[8]; clinical trial, 250-750 mg/day
  overall safety and tolerability: safe and well tolerated
[9]; differences between visit 2 and 5, 500 and 750 mg/day vs placebo, p=0.051
  carry-over / persistent effect after discontinuation, SAA: evidence of a persistent effect
[9]; summary of the clinical trial
  reduction of serum levels of SAA: approximately 25%
